This assay concerns Mycosphaerella graminicola; Anamorph: Septoria tritici; Bayer Code SEPTTR. The assay is described as follows: Leaf blotch of wheat, foliar fungicide treatment, one day protectant (1DP) or three day curative (3DC). In kind it is in vivo, Septoria tritici on wheat plants (variety Yuma). The following applies: Zymoseptoria tritici; for pest or weed control at 200 ppm / pest or weed control at 50 ppm: % disease control rating.

The mark [1] stands for this setting: 24 h, one day protectant (1DP), 25 ppm, percent disease control rating, read-out: SETTTR 1DP 25 ppm.
Where [2] appears, read: 24 h, one day protectant (1DP), percent disease control rating, read-out: SEPTTR 1DP 100 ppm.
Where [3] appears, read: 72 h, three day curative (3DC), 25 ppm, percent disease control rating, read-out: SEPTTR 3DC 25 ppm.
[4] abbreviates: 72 h, three day curative (3DC), percent disease control rating, read-out: SEPTTR 3DC 100 ppm.
The mark [5] stands for this setting: 24 h, one day protectant, 25 ppm, rating of percent disease control, read-out: SETTTR 1DP 25 ppm.
[6] abbreviates: 24 h, one day protectant, rating of percent disease control, read-out: SEPTTR 1DP 100 ppm.
Setting [7] is: 72 h, three day curative, 25 ppm, rating of percent disease control, read-out: SEPTTR 3DC 25 ppm.
Setting [8] is: 72 h, three day curative, rating of percent disease control, read-out: SEPTTR 3DC 100 ppm.
Where [9] appears, read: 24 h, one day protectant (1DP), 25 ppm, rating of percent disease control, read-out: SETTTR 1DP 25 ppm.
[10] abbreviates: 24 h, one day protectant (1DP), rating of percent disease control, read-out: SEPTTR 1DP 100 ppm.
Where [11] appears, read: 72 h, three day curative (3DC), 25 ppm, rating of percent disease control, read-out: SEPTTR 3DC 25 ppm.
The mark [12] stands for this setting: 72 h, three day curative (3DC), rating of percent disease control, read-out: SEPTTR 3DC 100 ppm.
[13] abbreviates: 24 h, one day protectant (1DP), 25 ppm (first 1DP column), percent control rating, read-out: SETTTR 1DP 25 ppm.
[14] abbreviates: 24 h, one day protectant (1DP), 25 ppm as printed (second 1DP column), percent control rating, read-out: SETTTR 1DP 25 ppm.
The mark [15] stands for this setting: 72 h, three day curative (3DC), 25 ppm, percent control rating, read-out: SEPTTR 3DC 25 ppm.
Setting [16] is: 72 h, three day curative (3DC), percent control rating, read-out: SEPTTR 3DC 100 ppm.

Read-outs that look alike come from different tables or passages of the source.

For the compound `CCC(/C=N/Nc1nc(OCc2cccc(OC)c2)ncc1F)CC` [Compound 97], the pest or weed control at 25 ppm is 0 to 25% under setting [1] and 0 to 25% under setting [3]. The pest or weed control at 100 ppm is, setting by setting: under setting [2], 51 to 75%; under setting [4], 0 to 25%.
As for `COc1cccc(COc2ncc(F)c(NC3CC3)n2)c1` [Compound 812], where the note is “24 h, one day protectant”, the pest or weed control at 200 ppm is 76 to 100%.
Consider `CC(Oc1ncc(F)c(N)n1)c1ccc(Cl)c(Cl)c1Cl` (centres unmarked) [Compound 607], for which the pest or weed control at 25 ppm reads like this: under setting [5], 0 to 25%; under setting [7], 0 to 25%. Moreover, the pest or weed control at 100 ppm under setting [6] was 0 to 25% and the pest or weed control at 100 ppm under setting [8] was 26 to 50%.
`C=CCOc1ncc(F)c(N)n1` [Compound 932]: for the setting “24 h, one day protectant”, the pest or weed control at 50 ppm lay within 76 to 100% and the pest or weed control at 200 ppm is 76 to 100%.
For the compound `Nc1nc(OCc2cc(C(F)(F)F)cc(C(F)(F)F)c2)ncc1F` [Compound 139], the pest or weed control at 25 ppm reads like this: under setting [1], 26 to 50%; under setting [3], 0 to 25%. Besides, the pest or weed control at 100 ppm by setting is: under setting [2], 51 to 75%; under setting [4], 26 to 50%.
As for `COc1ccc(COc2ncc(F)c(NC(=S)Nc3ccccc3F)n2)cc1F` [Compound 769], the pest or weed control at 25 ppm lay in the range of 51 to 75% under setting [9] and 0 to 25% under setting [11]. Also, the pest or weed control at 100 ppm was in the range of 76 to 100% under setting [10] and 76 to 100% under setting [12].
Consider `CN1CCCC/C1=N\c1nc(OCc2cccs2)ncc1F` [Compound 530], for which the pest or weed control at 25 ppm reads like this: under setting [9], 76 to 100%; under setting [11], 51 to 75%. Further, the pest or weed control at 100 ppm is, setting by setting: under setting [10], 76 to 100%; under setting [12], 76 to 100%.
With `Cc1cc(COc2ncc(F)c(N)n2)no1` [Compound 939], under “24 h, one day protectant”, the pest or weed control at 50 ppm lay in the range of 0 to 25% and the pest or weed control at 200 ppm lay within 76 to 100%.
On the same counts, the results for `Fc1cnc(OCc2cccs2)nc1NCc1ccc(Cl)nc1` [Compound 874] are 0 to 25% and 0 to 25%.
Regarding `Fc1ccc(COc2ncc(F)c(NCc3ccccc3F)n2)cc1` [Compound 30, (2-Fluorobenzyl)-[5-fluoro-2-(4-fluorobenzyloxy)pyrimidin-4-yl]amine], the pest or weed control at 25 ppm reads like this: under setting [1], 51 to 75%; under setting [3], 51 to 75%. Further, the pest or weed control at 100 ppm reads like this: under setting [2], 76 to 100%; under setting [4], 76 to 100%.
With `Cc1ccc(COc2ncc(F)c(NCO)n2)cc1` [Compound 16, [5-Fluoro-2-(4-methylbenzyloxy)pyrimidin-4-ylamino]methanol], the pest or weed control at 25 ppm runs as follows: under setting [1], 76 to 100%; under setting [3], 76 to 100%. In addition, the pest or weed control at 100 ppm under setting [2] is 76 to 100% and the pest or weed control at 100 ppm under setting [4] lay in the range of 76 to 100%.
Take `Nc1nc(OCc2ccc(Br)cc2)ncc1F` [Compound 757]: the pest or weed control at 25 ppm fell in the range of 76 to 100% under setting [9] and 76 to 100% under setting [11]. In addition, the pest or weed control at 100 ppm by setting is: under setting [10], 76 to 100%; under setting [12], 76 to 100%.
Consider `Nc1nc(OCCOc2ccccc2)ncc1F` [Compound 748], for which the pest or weed control at 25 ppm under setting [9] lay within 0 to 25%. Besides, under setting [10], the pest or weed control at 100 ppm was in the range of 0 to 25%.
For the compound `O=C(Nc1nc(O)ncc1F)NC1CCCC1` [Compound 973], the pest or weed control at 25 ppm is, setting by setting: under setting [13], 26 to 50%; under setting [14], 26 to 50%; under setting [15], 76 to 100%. In addition, the pest or weed control at 100 ppm under setting [16] was in the range of 51 to 75%.
As to `Cc1ccc(COc2ncc(F)c(NCc3cnc(C)cn3)n2)cc1` [Compound 916], for the setting “24 h, one day protectant”, the pest or weed control at 50 ppm is 76 to 100% and the pest or weed control at 200 ppm lay within 76 to 100%.
Take `NN(Cc1ccccc1Cl)c1nc(OCc2ccc(F)cc2)ncc1F` [Compound 456]: the pest or weed control at 25 ppm is, setting by setting: under setting [9], 51 to 75%; under setting [11], 0 to 25%. The pest or weed control at 100 ppm is, setting by setting: under setting [10], 76 to 100%; under setting [12], 76 to 100%.
Under “24 h, one day protectant”, `Fc1cnc(OCc2ccc(Cl)cc2Cl)nc1NCc1cccs1` [Compound 838] displayed a pest or weed control at 200 ppm of 76 to 100%.
On to `N#CNc1nc(OCc2ccccc2)ncc1F` [Compound 963, 2-Benzyloxy-5-fluoro-pyrimidin-4-yl-cyanamide], for which the pest or weed control at 25 ppm reads like this: under setting [13], 0 to 25%; under setting [14], 0 to 25%; under setting [15], 26 to 50%. Further, under setting [16], the pest or weed control at 100 ppm was 0 to 25%.
As to `CSCOc1ncc(F)c(/N=C/N(C)C)n1` [Compound 1127], the pest or weed control at 25 ppm under setting [13] lay within 76 to 100%, the pest or weed control at 25 ppm under setting [14] lay in the range of 76 to 100% and the pest or weed control at 25 ppm under setting [15] was 76 to 100%. Further, the pest or weed control at 100 ppm under setting [16] lay in the range of 76 to 100%.
In the case of `CC[Si](CC)(CC)Nc1nc(OCc2cccc(F)c2)ncc1F` [Compound 346], the pest or weed control at 25 ppm is 76 to 100% under setting [9] and 76 to 100% under setting [11]. The pest or weed control at 100 ppm runs as follows: under setting [10], 76 to 100%; under setting [12], 76 to 100%.
`Fc1ccc(COc2ncc(F)c(/N=C/N3CCCC3)n2)cc1` [Compound 21, [5-Fluoro-2-(4-fluorobenzyloxy)pyrimidin-4-yl]-[1-pyrrolidin-1-yl-methylidene]amine]: the pest or weed control at 25 ppm lay in the range of 76 to 100% under setting [1] and 76 to 100% under setting [3]. Further, the pest or weed control at 100 ppm runs as follows: under setting [2], 76 to 100%; under setting [4], 76 to 100%.
Take `CCCCCOC(=O)Nc1nc(OCc2cccc(F)c2)ncc1F` [Compound 762]: the pest or weed control at 25 ppm by setting is: under setting [9], 76 to 100%; under setting [11], 76 to 100%. The pest or weed control at 100 ppm fell in the range of 76 to 100% under setting [10] and 76 to 100% under setting [12].
Regarding `COc1ccc(COc2ncc(F)c(NC(=O)Nc3ccccc3F)n2)cc1F` [Compound 519], the pest or weed control at 25 ppm was 0 to 25% under setting [9] and 0 to 25% under setting [11]. Moreover, the pest or weed control at 100 ppm is 0 to 25% under setting [10] and 0 to 25% under setting [12].
Take `Cc1cc(C)cc(C(C)Oc2ncc(F)c(N)n2)c1` (centres unmarked) [Compound 592]: the pest or weed control at 25 ppm fell in the range of 76 to 100% under setting [5] and 76 to 100% under setting [7]. Besides, the pest or weed control at 100 ppm by setting is: under setting [6], 76 to 100%; under setting [8], 76 to 100%.
On to `O=CNc1nc(OS(=O)(=O)c2ccccc2)ncc1F` [Compound 646], for which the pest or weed control at 25 ppm under setting [5] was in the range of 51 to 75% and the pest or weed control at 25 ppm under setting [7] was in the range of 76 to 100%. The pest or weed control at 100 ppm by setting is: under setting [6], 76 to 100%; under setting [8], 76 to 100%.
In the case of `Fc1ccc(COc2ncc(F)c(NNc3ccccc3F)n2)cc1` [Compound 1042], the pest or weed control at 25 ppm reads like this: under setting [13], 0 to 25%; under setting [14], 0 to 25%; under setting [15], 0 to 25%. For the same compound, the pest or weed control at 100 ppm under setting [16] was 26 to 50%.
Take `COc1ccccc1COc1ncc(F)c(NCO)n1` [Compound 571]: the pest or weed control at 25 ppm is, setting by setting: under setting [5], 76 to 100%; under setting [7], 76 to 100%. The pest or weed control at 100 ppm under setting [6] lay in the range of 76 to 100% and the pest or weed control at 100 ppm under setting [8] lay within 76 to 100%.
As for `Cc1ccc(COc2ncc(F)c(NS(=O)(=O)c3ccc(C)cc3)n2)cc1` [Compound 955, N-(5-Fluoro-2-(4-methylbenzyloxy)pyrimidin-4-yl)-4-methylbenzenesulfonamide], the pest or weed control at 25 ppm was 0 to 25% under setting [13], 0 to 25% under setting [14] and 0 to 25% under setting [15]. Moreover, the pest or weed control at 100 ppm under setting [16] fell in the range of 0 to 25%.
With `N#CNc1nc(OCc2ccc(F)cc2)ncc1F` [Compound 451], the pest or weed control at 25 ppm is, setting by setting: under setting [9], 0 to 25%; under setting [11], 0 to 25%. Further, the pest or weed control at 100 ppm reads like this: under setting [10], 0 to 25%; under setting [12], 0 to 25%.
Turning to `CCS(=O)(=O)Nc1nc(O)ncc1F` [Compound 1105], the pest or weed control at 25 ppm runs as follows: under setting [13], 0 to 25%; under setting [14], 0 to 25%; under setting [15], 0 to 25%. Further, under setting [16], the pest or weed control at 100 ppm fell in the range of 0 to 25%.
For the compound `N#Cc1cccc(COc2ncc(F)c(NSc3ccccc3[N+](=O)[O-])n2)c1` [Compound 612], the pest or weed control at 25 ppm is 76 to 100% under setting [5] and 76 to 100% under setting [7]. The pest or weed control at 100 ppm reads like this: under setting [6], 76 to 100%; under setting [8], 76 to 100%.
Take `CC(C)(C)c1ccc(COc2ncc(F)c(N)n2)cc1` [Compound 696]: the pest or weed control at 25 ppm by setting is: under setting [5], 76 to 100%; under setting [7], 51 to 75%. Also, the pest or weed control at 100 ppm by setting is: under setting [6], 76 to 100%; under setting [8], 76 to 100%.
For the compound `COc1ncc(F)c(/N=N/c2c(Cl)cccc2Cl)n1` [Compound 1097], the pest or weed control at 25 ppm under setting [13] lay within 0 to 25%, the pest or weed control at 25 ppm under setting [14] lay in the range of 0 to 25% and the pest or weed control at 25 ppm under setting [15] lay in the range of 0 to 25%. Besides, the pest or weed control at 100 ppm under setting [16] lay in the range of 26 to 50%.

(Values after patent publication US9204653B2, “5-fluoro pyrimidine derivatives” (DOW AGROSCIENCES LLC, priority 2008, dated 2015).)
